{"source": "patent EP0103381B1", "about": "“Substituted anthra(1,9-cd)pyrazol-6(2H)-ones” (WARNER-LAMBERT COMPANY, priority 1982, dated 1984)", "key": {"[1]": {"tested_on": "B16 Melanoma (BDF1)", "assay": "broad spectrum antitumor activity in mice, B16 melanoma (BDF1)", "format": "in vivo", "conditions": "IP/IP", "text": "(§1) Broad Spectrum Antitumor Activity^* of 2-[2-(Diethylamino)ethyl]-7,10-dihydroxy-5-[[2-[(2-hydroxyethyl)amino]ethyl]amino]anthra[1-9-cd]pyrazol-6(2H)-one Dihydrochloride in Mice"}, "[2]": {"tested_on": "Colon 38 (BDF1)", "assay": "broad spectrum antitumor activity in mice, Colon 38", "format": "in vivo", "conditions": "SC/IP, Q01D × 09, Dose 16 mg/kg", "text": "as §1"}, "[3]": {"tested_on": "HCT-8 (human colon adenocarcinoma) cells", "assay": "in vitro activity against human colon adenocarcinoma (HCT-8), cell count", "format": "cell-based", "conditions": "Homo sapiens; HCT-8 cells, 60-65 hrs with compound; molar quantity of drug required to kill 50% of the tumor cells; read-out: ID50 Molar", "in_short": "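HCT-8 cells seeded at ~30,000 cells/ml in RPMI 1640 + 10% FCS, grown 48 hrs at 37°C, then exposed to compound 60-65 hrs. Lysed cells counted by Coulter counter; activity as percent of controls, reported as ID50 (molar quantity killing 50% of cells).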"}, "[4]": {"tested_on": "Aerobacter aerogenes", "assay": "agar plate paper-disc inhibition zone screening", "format": "cell-based", "conditions": "Klebsiella aerogenes; Dose 1.0 mg/ml; read-out: Inhibition Zone Diameter mm (Dose mg/ml) A. Aerogenes", "in_short": "(§2)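 Inoculum: saline suspension, 20-35% transmittancy, in molten agar. Discs 12.7 mm, compound 3,000/1,000/500/100/10 mcg/ml, solvent <10%. 37°C, 18-20 h; zone diameter in mm.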"}, "[5]": {"tested_on": "Bacillus subtilis", "assay": "agar plate paper-disc inhibition zone screening", "format": "cell-based", "conditions": "Dose 1.0 mg/ml, read-out: Inhibition Zone Diameter mm (Dose mg/ml) B. Subtilis", "in_short": "as §2"}, "[6]": {"tested_on": "Streptococcus faecalis", "assay": "agar plate paper-disc inhibition zone screening", "format": "cell-based", "conditions": "Enterococcus faecalis; Dose 1.0 mg/ml; read-out: Inhibition Zone Diameter mm (Dose mg/ml) S. Faecalis", "in_short": "as §2"}, "[7]": {"tested_on": "Escherichia coli", "assay": "agar plate paper-disc inhibition zone screening", "format": "cell-based", "conditions": "Dose 0.5 mg/ml, read-out: Inhibition Zone Diameter mm (Dose mg/ml) E. Coli", "in_short": "as §2"}, "[8]": {"tested_on": "Penicillium avellaneum", "assay": "agar plate paper-disc inhibition zone screening", "format": "cell-based", "conditions": "Hamigera avellanea; Dose 3.0 mg/ml; read-out: Inhibition Zone Diameter mm (Dose mg/ml) P. Avellaneum", "in_short": "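Mycelia and spores from a six-day 28°C agar culture, suspended in saline with 0.05% Tween 80 at 20% transmittancy, were seeded into molten agar trays. Compounds at 3,000, 1,000, 500, 100 and 10 mcg/ml (solvent <10%) were applied on 12.7 mm paper discs. After at least 20-24 h incubation, inhibition zone diameter was measured in mm.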"}, "[9]": {"tested_on": "B16 Melanoma (B6C3F1)", "assay": "broad spectrum antitumor activity in mice, B16 melanoma (B6C3F1)", "format": "in vivo", "conditions": "I-/IP", "text": "as §1"}, "[10]": {"tested_on": "ADJ—PC6 Plasmacytoma", "assay": "broad spectrum antitumor activity in mice, ADJ-PC6 plasmacytoma", "format": "in vivo", "conditions": "IP/IP", "text": "as §1"}}, "data": [{"smiles": "CCN(CC)CCn1nc2c3c(c(NCCNCCO)ccc31)C(=O)c1c(O)ccc(O)c1-2", "note": "[Example 28, 2-[2-(Diethylamino)ethyl]-7,10-dihydroxy-5-[[2-[(2-hydroxyethyl)amino]ethyl]amino]anthra[1,9-cd]pyrazol-6(2H)-one]", "values": [{"measurement": "T/C × 100 (Percent)", "setting": "[1]; Q01D × 09, Dose 4 mg/kg", "result": 151, "unit": "%"}, {"measurement": "T/C × 100 (Percent)", "setting": "[1]; Q01D × 09, Dose 8 mg/kg", "result": 176, "unit": "%"}, {"measurement": "% Tumor Reduction", "setting": "[2]", "result": 71, "unit": "%"}, {"measurement": "IC50", "setting": "[3]", "result": 270, "unit": "nM"}, {"measurement": "zone of inhibition at 1000 µg/mL", "setting": "[4]", "result": 14, "unit": "mm"}, {"measurement": "zone of inhibition at 1000 µg/mL", "setting": "[5]", "result": 15, "unit": "mm"}, {"measurement": "zone of inhibition at 1000 µg/mL", "setting": "[6]", "result": 14, "unit": "mm"}, {"measurement": "zone of inhibition at 500 µg/mL", "setting": "[7]", "result": 14, "unit": "mm"}, {"measurement": "zone of inhibition at 3000 µg/mL", "setting": "[8]", "result": 0, "unit": "mm"}, {"measurement": "T/C × 100 (Percent)", "setting": "[9]; Q01D × 09, Dose 3 mg/kg", "result": 148, "unit": "%"}, {"measurement": "T/C × 100 (Percent)", "setting": "[9]; Q01D × 09, Dose 6 mg/kg", "result": 189, "unit": "%"}, {"measurement": "T/C × 100 (Percent)", "setting": "[10]; Q04D × 03, Dose 2 mg/kg", "result": 207, "unit": "%"}, {"measurement": "T/C × 100 (Percent)", "setting": "[10]; Q04D × 03, Dose 4 mg/kg", "result": 216, "unit": "%"}, {"measurement": "T/C × 100 (Percent)", "setting": "[10]; Q04D × 03, Dose 8 mg/kg", "result": 235, "unit": "%"}, {"measurement": "T/C × 100 (Percent)", "setting": "[10]; Q04D × 03, Dose 16 mg/kg", "result": 163, "unit": "%"}]}]}
